We go through one substance from patent publication US6348317B1, “Fluorescent and DNA cleavage properties of peptide/dye conjugates” (The Arizona Board of Regents, priority 1999, dated 2002).

The subject of assay [1] is 5′-32P-end-labeled GRE2 duplex DNA. The assay is described as follows: Radical hydroxyl footprinting. In kind it is binding. The following applies: 60 minutes in the dark at 25° C., 60 seconds reaction. Here is the method: The protocol for radical hydroxyl footprinting reactions was adapted from previously established methods, A. Revzin, Ed., Separation, Detection and Characterization of Biological Macromolecules (1993); P. E. Nielsen, J. Molec. Recog. 3:1-25 (1990). Reaction samples comprised of the TO-ZF and 5′^-32P-end-labeled GRE2 in 20 mM Tris (pH 7.9), 40 mM NaCl, 20 mM KCl, 1 mM MgCl2 were allowed to equilibrate in the dark at room temperature for 60 minutes. Equal volumes of a freshly prepared solution of 0.2 mM [Fe(EDTA)]^2− was mixed with a 0.3% H2O2 solution and a 10 mM sodium ascorbate solution and added to the reaction sample. After a one minute incubation, the reactions were quenched with an aqueous solution of 20 mM thiourea and 10 mg/ml tRNA. The footprinting reactions were analyzed on a 15% denaturing polyacrylamide gel.
Footprinting of TO-ZF Conjugate. DNA footprinting by the TO-ZF conjugate was performed to determine if the TO-ZF conjugate was binding the same sequence as the native glucocorticoid receptor protein DNA-binding domain. More specifically, reaction samples (Maxam-Gilbert A+G and C+T sequencing reactions, radical hydroxyl cleavage of GRE2 in the presence of TO-ZF, radical hydroxyl cleavage of GRE2 in the absence of TO-ZF) contained […] duplex DNA and […] TO-ZF, 20 mM Tris (pH 7.9), 40 mM NaCl, 20 mM KCl, 1 mM MgCl2. […]

Assay [2] deals with GRE1 dsDNA. In words: Photocleavage at 514 nm, PAGE analysis. In kind it is biochemical. Here is the method: The purified DNA strands shown in FIG. 2 were 5′^-32P-end-labeled using T4 polynucleotide kinase and purified as described above. Oxygen removal was performed by bubbling argon through the samples. Irradiations were performed on […] samples in a 1.0 mL glass cuvette fit with a septum using an argon-ion laser at 514 nm with a power of 300 mW/cm^2. After irradiation, samples were divided in half and one portion treated with piperidine, the other immediately frozen. Piperidine treatment consisted of adding an equal volume of freshly prepared 20% piperidine in water to the sample followed by heating at 90° C. for 30 minutes. Both the treated and untreated fractions were dried under vacuum. To each dried sample was added […] of 80% formamide in water. The products of the photocleavage experiments were analyzed on a 15% polyacrylamide (19:1) vertical sequencing gel with dimensions 21 cm×40 cm×0.4 mm. […] Gels were dried and exposed to a phosphorimaging screen for 4 hours and analyzed on a Molecular Dynamics Storm-840 gel scanner in phosphorimaging mode.
Photocleavage of TO-ZF conjugate. […] After irradiation of TO-ZF bound to dsDNA in Tris buffer solution at 514 nm (514 nm is in the main band of the absorbance spectrum of intercalated thiazole orange as shown in FIG. 3), the photo-products were denatured and separated using denaturing polyacrylamide gel electrophoresis (PAGE). […]

“TO-ZF: 29 amino acid single zinc finger from residues 438-465 of glucocorticoid receptor, thiazole orange coupled to a lysine ε-amine”: the “region protected from radical hydroxyl cleavage” value in assay [1] is reported as “protects a four base pair region (TTCT) within the native GRE binding sequence”. The site of photocleavage result in assay [2] (514 nm irradiation, piperidine treatment) is “piperidine dependent cleavage to occur predominantly at the guanine within the GRE”. In addition, the “total chemical yield of the piperidine dependent reactions” value in assay [2] (samples reacted in the presence of oxygen) came to 2%.
